Literature values, collected in patent EP0788741B1 (priority 1996, dated 1997).

Test system: Australorbis Glabratus
Settings: Public Health Report, Vol. 82, No. 9; cited from earlier work

| SMILES | concentration effective to kill Puerto Rican snails |
| --- | --- |
| CCCCCCCCCCCCCN(C)C.O=C(O)C1C2CCC(O2)C1C(=O)O [mono (N,N-dimethyltridecylamine) salt of Endothall] | 10 ppm |
| CCCCCCCCCCCCCN(C)C.CCCCCCCCCCCCCN(C)C.O=C(O)C1C2CCC(O2)C1C(=O)O [di (N,N-dimethyltridecylamine) salt of Endothall] | 5 ppm |
